Reference: patent publication US20130209543A1, “ENHANCED TREATMENT REGIMENS USING MTOR INHIBITORS” (Intellikine LLC, priority 2011, published 2013)

Test: Phase I clinical trial: safety, related treatment-emergent adverse events, patients n (%)
Assay type: in vivo
[1] = Total QW Dosing, N = 15, listed as Cpd A
[2] = all 3 intermittent dosing regimens, n=35

Experimental: Safety, maximum tolerated dose (MTD), pharmacokinetics (PK) and preliminary antitumor activity were evaluated.
Pharmacodynamic (PD) endpoints were evaluated in surrogate (peripheral blood cells [PBCs], skin) and tumor tissues for the phosphorylation of TORC1-dependent markers (4EBP1/S6), and TORC2-dependent markers (AKT/PRAS40).

For `CC(C)n1nc(-c2ccc3oc(N)nc3c2)c2c(N)ncnc21` [compound A], the Gastritis (Total QDx3d QW, N = 14) was 0 (0%), the Gravitational oedema (Total QDx3d QW, N = 14) was 0 (0%) and the Hypocalcaemia (Total QDx3d QW, N = 14) was 0 (0%). The Insomnia (Total QDx3d QW, N = 14) was 0 (0%), the Malaise (Total QDx3d QW, N = 14) was 0 (0%) and the Nausea (Total QDx3d QW, N = 14) was 0 (0%). The Oral discomfort (Total QDx3d QW, N = 14) was 0 (0%), the Orthostatic hypotension (Total QDx3d QW, N = 14) was 0 (0%) and the Panniculitis (Total QDx3d QW, N = 14) was 0 (0%). For the same compound, the Polyuria (Total QDx3d QW, N = 14) was 0 (0%), the Rash (Total QDx3d QW, N = 14) was 0 (0%) and the Skin discolouration (Total QDx3d QW, N = 14) was 0 (0%). For the same compound, the Skin exfoliation (Total QDx3d QW, N = 14) was 0 (0%), the Urine tract infection (Total QDx3d QW, N = 14) was 0 (0%) and the Vomiting (Total QDx3d QW, N = 14) was 0 (0%). The Weakness (Total QDx3d QW, N = 14) was 0 (0%), the Weight decreased (Total QDx3d QW, N = 14) was 0 (0%) and the Catheter site inflammation (Total QDx5d QW, N = 6) was 0 (0%). For the same compound, the Catheter site pain (Total QDx5d QW, N = 6) was 0 (0%), the Coagulopathy (Total QDx5d QW, N = 6) was 0 (0%) and the Confusional state (Total QDx5d QW, N = 6) was 0 (0%). The Cough (Total QDx5d QW, N = 6) was 0 (0%), the Diarrhea (Total QDx5d QW, N = 6) was 0 (0%) and the Dizziness (Total QDx5d QW, N = 6) was 0 (0%). The Dyspnoea exertional (Total QDx5d QW, N = 6) was 0 (0%), the Eye infection (Total QDx5d QW, N = 6) was 0 (0%) and the Fatigue (Total QDx5d QW, N = 6) was 0 (0%). For the same compound, the Gastritis (Total QDx5d QW, N = 6) was 0 (0%), the Gravitational oedema (Total QDx5d QW, N = 6) was 0 (0%) and the Headache (Total QDx5d QW, N = 6) was 0 (0%). For the same compound, the Hyperbilirubinaemia (Total QDx5d QW, N = 6) was 0 (0%), the Hypertransaminasaemia (Total QDx5d QW, N = 6) was 0 (0%) and the Hypertriglyceridaemia (Total QDx5d QW, N = 6) was 0 (0%). The Hypocalcaemia (Total QDx5d QW, N = 6) was 0 (0%), the Hypomagnesaemia (Total QDx5d QW, N = 6) was 0 (0%) and the Hypotension (Total QDx5d QW, N = 6) was 0 (0%). The Insomnia (Total QDx5d QW, N = 6) was 0 (0%), the Low fever (Total QDx5d QW, N = 6) was 0 (0%) and the Malaise (Total QDx5d QW, N = 6) was 0 (0%). For the same compound, the “Nausea (second line)” value (Total QDx5d QW, N = 6) was 1 (17%), the Oral discomfort (Total QDx5d QW, N = 6) was 0 (0%) and the Orthostatic hypotension (Total QDx5d QW, N = 6) was 0 (0%). The Palmar-plantar erythrodysaesthesia syndrome (Total QDx5d QW, N = 6) was 0 (0%), the Panniculitis (Total QDx5d QW, N = 6) was 0 (0%) and the Platelet count decreased (Total QDx5d QW, N = 6) was 0 (0%). For the same compound, the Polyuria (Total QDx5d QW, N = 6) was 0 (0%), the Pyrexia (Total QDx5d QW, N = 6) was 0 (0%) and the Rash (Total QDx5d QW, N = 6) was 0 (0%). For the same compound, the Rash macular (Total QDx5d QW, N = 6) was 0 (0%), the Skin discolouration (Total QDx5d QW, N = 6) was 0 (0%) and the Skin exfoliation (Total QDx5d QW, N = 6) was 0 (0%). For the same compound, the Urinary tract infection (Total QDx5d QW, N = 6) was 0 (0%), the Weakness (Total QDx5d QW, N = 6) was 0 (0%) and the Weight decreased (Total QDx5d QW, N = 6) was 0 (0%). For the same compound, the Aspartate aminotransferase increased (Total QW Dosing, N = 15) was 2 (13%), the Asthenia (Total QW Dosing, N = 15) was 2 (13%) and the Catheter site inflammation (Total QW Dosing, N = 15) was 0 (0%). For the same compound, the Catheter site pain (Total QW Dosing, N = 15) was 0 (0%), the Coagulopathy (Total QW Dosing, N = 15) was 0 (0%) and the Confusional state (Total QW Dosing, N = 15) was 0 (0%). The Cough (Total QW Dosing, N = 15) was 0 (0%), the Diarrhoea (Total QW Dosing, N = 15) was 3 (20%) and the Dizziness (Total QW Dosing, N = 15) was 0 (0%). The Dyspnoea exertional (Total QW Dosing, N = 15) was 0 (0%), the Eye infection (Total QW Dosing, N = 15) was 0 (0%) and the Fatigue (Total QW Dosing, N = 15) was 0 (0%). For the same compound, the Gastritis (Total QW Dosing, N = 15) was 0 (0%), the Gravitational oedema (Total QW Dosing, N = 15) was 0 (0%) and the HYPERGLYCEMIA (Total QW Dosing, N = 15) was 2 (13%). The Headache (Total QW Dosing, N = 15) was 0 (0%), the Hyperbilirubinaemia (Total QW Dosing, N = 15) was 0 (0%) and the Hyperglycaemia (Total QW Dosing, N = 15) was 5 (33%). For the same compound, the Hypertransaminasaemia (Total QW Dosing, N = 15) was 0 (0%), the Hypertriglyceridaemia (Total QW Dosing, N = 15) was 0 (0%) and the Hypocalcaemia (Total QW Dosing, N = 15) was 0 (0%). The Hypomagnesaemia (Total QW Dosing, N = 15) was 0 (0%), the Hypotension (Total QW Dosing, N = 15) was 0 (0%) and the Insomnia (Total QW Dosing, N = 15) was 0 (0%). For the same compound, the Low fever (Total QW Dosing, N = 15) was 0 (0%), the Mucosal inflammation (Total QW Dosing, N = 15) was 3 (20%) and the Nausea (Total QW Dosing, N = 15) was 0 (0%). For the same compound, the Orthostatic hypotension (Total QW Dosing, N = 15) was 0 (0%), the Palmar-plantar erythrodysaesthesia syndrome (Total QW Dosing, N = 15) was 0 (0%) and the Panniculitis (Total QW Dosing, N = 15) was 0 (0%). The “Patients Reporting at Least One Related TEAE” value (Total QW Dosing, N = 15) was 13 (87%), the Platelet count decreased (Total QW Dosing, N = 15) was 0 (0%) and the Polyuria (Total QW Dosing, N = 15) was 0 (0%). The Pyrexia (Total QW Dosing, N = 15) was 0 (0%), the Rash macular (Total QW Dosing, N = 15) was 0 (0%) and the Skin discolouration (Total QW Dosing, N = 15) was 0 (0%). The Skin exfoliation (Total QW Dosing, N = 15) was 0 (0%), the Urinary tract infection (Total QW Dosing, N = 15) was 0 (0%) and the Urine tract infection (Total QW Dosing, N = 15) was 0 (0%). The Vomiting (Total QW Dosing, N = 15) was 0 (0%), the Weight decreased (Total QW Dosing, N = 15) was 0 (0%) and the Nausea [1] was 10 (67%). The Vomiting [1] was 5 (33%), the Catheter site inflammation (Total, N = 60) was 1 (2%) and the Catheter site pain (Total, N = 60) was 1 (2%). The Coagulopathy (Total, N = 60) was 1 (2%), the Confusional state (Total, N = 60) was 1 (2%) and the Cough (Total, N = 60) was 1 (2%). For the same compound, the Diarrhea (Total, N = 60) was 1 (2%), the Dizziness (Total, N = 60) was 1 (2%) and the Dyspnoea exertional (Total, N = 60) was 1 (2%). The Eye infection (Total, N = 60) was 1 (2%), the Fatigue (Total, N = 60) was 1 (2%) and the Gastritis (Total, N = 60) was 1 (2%). For the same compound, the Gravitational oedema (Total, N = 60) was 1 (2%), the Headache (Total, N = 60) was 1 (2%) and the Hyperbilirubinaemia (Total, N = 60) was 1 (2%). The Hypertransaminasaemia (Total, N = 60) was 1 (2%), the Hypertriglyceridaemia (Total, N = 60) was 1 (2%) and the Hypocalcaemia (Total, N = 60) was 1 (2%). The Hypomagnesaemia (Total, N = 60) was 1 (2%), the Hypotension (Total, N = 60) was 1 (2%) and the Insomnia (Total, N = 60) was 1 (2%). For the same compound, the Low fever (Total, N = 60) was 1 (2%), the Malaise (Total, N = 60) was 1 (2%) and the Nausea (Total, N = 60) was 1 (2%). For the same compound, the Oral discomfort (Total, N = 60) was 1 (2%), the Orthostatic hypotension (Total, N = 60) was 1 (2%) and the Palmar-plantar erythrodysaesthesia syndrome (Total, N = 60) was 1 (2%). For the same compound, the Panniculitis (Total, N = 60) was 1 (2%), the Platelet count decreased (Total, N = 60) was 1 (2%) and the Polyuria (Total, N = 60) was 1 (2%). For the same compound, the Pyrexia (Total, N = 60) was 1 (2%), the Rash (Total, N = 60) was 1 (2%) and the Rash macular (Total, N = 60) was 1 (2%). The Skin discolouration (Total, N = 60) was 1 (2%), the Skin exfoliation (Total, N = 60) was 1 (2%) and the Urinary tract infection (Total, N = 60) was 1 (2%). For the same compound, the Urine tract infection (Total, N = 60) was 1 (2%), the Vomiting (Total, N = 60) was 1 (2%) and the Weakness (Total, N = 60) was 1 (2%). For the same compound, the Weight decreased (Total, N = 60) was 1 (2%), the “AE possibly related: asthenia” value [2] was 23% and the “AE possibly related: diarrhea” value [2] was 20%. For the same compound, the “AE possibly related: hyperglycemia” value [2] was 37%, the “AE possibly related: mucosal inflammation” value [2] was 29% and the “AE possibly related: nausea” value [2] was 51%. The “AE possibly related: rash” value [2] was 23%, the “AE possibly related: vomiting” value [2] was 26% and the “reversibility of adverse events” value (all AEs reported) was “reversible”. For the same compound, the “grade of the majority of AEs possibly related” value (any regimen) was “Grade 1 or 2”.
